From article PMC9211429 (Antimicrobial Agents and Chemotherapy, 2022)

Tests used:
clinical [1] = details: human, in vivo; for AUC(0-t): AUC0-24 PBMC
HIV = test system: HIV; parameters: method as in earlier work; details: cited from earlier work
[2] = human, in vivo
clinical [3] = details: human, in vivo, AUC0-24 Plasma

## CC(C)CN(C[C@@H](O)[C@H](Cc1ccccc1)NC(=O)O[C@H]1CO[C@H]2OCC[C@H]21)S(=O)(=O)c1ccc(N)cc1 [DRV, darunavir]
Clinical [1]
  AUC(0-t): 17500 ng·h/mL
HIV
  90% effective concentration (EC90): 0.2 µg/mL

## C[C@@H]1CCO[C@H]2Cn3cc(C(=O)NCc4ccc(F)cc4F)c(=O)c(O)c3C(=O)N12 [DTG, dolutegravir]
Clinical [1]
  AUC(0-t): 14900 ng·h/mL
Clinical [1]; Ctrough in PBMC relative to plasma, throughout the protocol
  Kp: ~0.25
Clinical [1]; PBMC/Plasma Ctrough ratio
  Kp: 0.19
[2]
  AUC0-24 PBMC: 12807 ng·h/mL
Clinical [3]
  AUC(0-t): 31600 ng·h/mL
human, in vivo
  AUC0-24 Plasma: 30967 ng·h/mL

## CO[C@H]1/C=C/O[C@@]2(C)Oc3c(C)c(O)c4c(O)c(c(/C=N/N5CCN(C)CC5)c(O)c4c3C2=O)NC(=O)/C(C)=C\C=C\[C@H](C)[C@H](O)[C@@H](C)[C@@H](O)[C@@H](C)[C@H](OC(C)=O)[C@@H]1C [RIF, rifampicin]
median, DRV/RTV 1600/200 QD + DTG + RIF (n = 4)
  Cmax Plasma: 11240 ng/mL

## CC(C)c1nc(CN(C)C(=O)N[C@H](C(=O)N[C@@H](Cc2ccccc2)C[C@H](O)[C@H](Cc2ccccc2)NC(=O)OCc2cncs2)C(C)C)cs1 [RTV, ritonavir]
Clinical [1]
  AUC(0-t): 9830 ng·h/mL
Clinical [3]
  AUC(0-t): 6070 ng·h/mL
